This note sets out measurements from patent US20110071115A1, “PHARMACEUTICALLY USEFUL HETEROCYCLE-SUBSTITUTED LACTAMS” (CYLENE PHARMACEUTICALS, INC., priority 2009, published 2011).

One assay deals with T1, recombinant human CK2 (Homo sapiens, UniProt P68400).
T1 construct: purchased Upstate
Description: CK2 assay (cell-free, 33P-ATP filter plate). In kind it is biochemical. On the procedure:
Modulatory activity of compounds described herein was assessed in vitro in cell-free CK2 assays by the following method.
Test compounds in aqueous solution were added at a volume of 10 microliters, to a reaction mixture comprising 10 microliters Assay Dilution Buffer (ADB; 20 mM MOPS, pH 7.2, 25 mM beta-glycerolphosphate, 5 mM EGTA, 1 mM sodium orthovanadate and 1 mM dithiothreitol), 10 microliters of substrate peptide (RRRDDDSDDD, dissolved in ADB at a concentration of 1 mM), 10 microliters of recombinant human CK2 (25 ng dissolved in ADB; Upstate). Reactions were initiated by the addition of 10 microliters of ATP Solution (90% 75 mM MgCl2, 75 micromolar ATP dissolved in ADB; 10% [γ-^33P]ATP (stock 1 mCi/100 μl; 3000 Ci/mmol (Perkin Elmer) and maintained for 10 minutes at 30° C. The reactions were quenched with 100 microliters of 0.75% phosphoric acid, then transferred to and filtered through a phosphocellulose filter plate (Millipore). After washing each well 5 times with 0.75% phosphoric acid, the plate was dried under vacuum for 5 min and, following the addition of 15 ul of scintilation fluid to each well, the residual radioactivity was measured using a Wallac luminescence counter.

Assay [1] concerns BxPC3 human pancreatic adenocarcinoma cells. Description: Alamar Blue (AB) cell proliferation assay, BxPC3. In kind it is cell-based. How it is done: (§1) A representative cell-proliferation assay protocol using Alamar Blue dye (stored at 4° C., use 20 ul per well) is described hereafter.
(§2) c. Plate 4,000-5,000 cells per well in 100 μl of medium and seed into a 96-well plate according to the following plate layout. Add cell culture medium only to wells B10 to B12. Wells B1 to B9 have cells but no compound added.
(§3) d. Add 100 μl of 2× drug dilution to each well in a concentration shown in the plate layout above. At the same time, add 100 μl of media into the control wells (wells B10 to B12). Total volume is 200 μl/well.
(§4) e. Incubate four (4) days at 37° C., 5% CO2 in a humidified incubator.
(§5) f. Add 20 μl Alamar Blue reagent to each well.
(§6) g. Incubate for four (4) hours at 37° C., 5% CO2 in a humidified incubator.
(§7) h. Record fluorescence at an excitation wavelength of 544 nm and emission wavelength of 590 nm using a microplate reader.
(§8) In the assays, cells are cultured with a test compound for approximately four days, the dye is then added to the cells and fluorescence of […] dye is detected after approximately four hours. Different types of cells can be utilized in the assays (e.g., HCT-116 human colorectal carcinoma cells, PC-3 human prostatic cancer cells, MDA-MB231 human breast cancer cells, K-562 human chronic myelogenous leukemia (CML) cells, MiaPaca human pancreatic carcinoma cells, MV-4 human acute myeloid leukemia cells, and BxPC3 human pancreatic adenocarcinoma cells).

In another assay the test system is MDAMB453. The assay can be described thus: Alamar Blue (AB) cell proliferation assay, MDAMB453. In kind it is cell-based. How it is done:
as §1, §2, §3, §4, §5, §6, §7, §8
For orientation: The colour change of resazurin is a common sign of viable cells or microbes.

The target of a further assay is recombinant human Pim-2 (Homo sapiens, UniProt Q9P1W9). Description: PIM-2 assay (33P-ATP filter plate). The note with it: 2.5 uM compound. Format: biochemical. How it is done:
Test compounds dissolved and diluted in DMSO (2 μl) were added to a reaction mixture comprising 10 μl of 5× Reaction Buffer (40 mM MOPS pH 7.0, 5 mM EDTA), 10 of recombinant human Pim-2 solution (4 ng Pim-2 dissolved in dilution buffer (20 mM MOPS pH 7.0; EDTA 1 mM; 5% Glycerol; 0.01% Brij 35; […]; […] 2-mercaptoethanol; 1 mg/ml BSA)) and 8 ul of water. Reactions were initiated by the addition of 10 ul of ATP Solution (49% (15 mM MgCl2; 75 uM ATP) 1% ([γ-33P]ATP: Stock 1 mCi/100 μl; 3000 Ci/mmol (Perkin Elmer)) and 10 ul of substrate peptide solution (RSRSSYPAGT, dissolved in water at a concentration of 1 mM), Reactions were maintained for […] at 30° C. The reactions were quenched with 100 ul of 0.75% phosphoric acid, then transferred to and filtered through a Phosphocellulose filter plate (Millipore, MSPH-N6B-50). After washing each well 4 times with 0.75% phosphoric acid, scintillation fluid (20 μL) was added to each well and the residual radioactivity was measured using a Wallac luminescence counter.

Where two headings read alike, the source gives them in different places.

T1 sequence (P68400 whole entry): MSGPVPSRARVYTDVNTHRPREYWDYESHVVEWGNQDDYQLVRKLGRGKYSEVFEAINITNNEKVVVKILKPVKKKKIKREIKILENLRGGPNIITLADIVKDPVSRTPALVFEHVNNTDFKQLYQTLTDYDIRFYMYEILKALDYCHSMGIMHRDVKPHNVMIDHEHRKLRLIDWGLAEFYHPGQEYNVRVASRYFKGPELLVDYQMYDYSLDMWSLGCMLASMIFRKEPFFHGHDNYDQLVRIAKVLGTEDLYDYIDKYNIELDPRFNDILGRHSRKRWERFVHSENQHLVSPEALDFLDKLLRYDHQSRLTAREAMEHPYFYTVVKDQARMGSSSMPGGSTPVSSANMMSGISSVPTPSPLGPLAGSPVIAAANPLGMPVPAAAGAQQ
T1 sequence (P67870 whole entry partner): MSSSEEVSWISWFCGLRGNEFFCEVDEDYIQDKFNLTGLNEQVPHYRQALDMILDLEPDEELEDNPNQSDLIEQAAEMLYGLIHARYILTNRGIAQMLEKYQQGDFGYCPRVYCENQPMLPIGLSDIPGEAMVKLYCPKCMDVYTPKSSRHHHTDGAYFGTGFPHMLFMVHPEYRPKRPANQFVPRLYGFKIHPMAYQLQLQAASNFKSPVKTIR
Sequence of recombinant human Pim-2 (Q9P1W9 whole entry): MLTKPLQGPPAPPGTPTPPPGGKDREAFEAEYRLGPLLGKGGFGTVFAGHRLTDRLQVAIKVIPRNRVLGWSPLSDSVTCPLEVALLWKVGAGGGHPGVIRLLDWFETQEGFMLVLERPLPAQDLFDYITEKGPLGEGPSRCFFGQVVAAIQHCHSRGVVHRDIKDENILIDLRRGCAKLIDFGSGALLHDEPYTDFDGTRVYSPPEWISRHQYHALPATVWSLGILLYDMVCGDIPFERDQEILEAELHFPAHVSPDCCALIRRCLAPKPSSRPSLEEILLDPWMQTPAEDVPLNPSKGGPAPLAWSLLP

On to `O=C(O)CCCC(=O)OCN1C(=O)C/C(=C\c2cnn3c(NC4CC4)cc(Nc4cc(Cl)ccc4F)nc23)C1=O` [Example P2], for which the IC50 (usually the concentration at which inhibition is half-maximal) is under 0.1 µM at recombinant human CK2, over 30 µM in assay [1] and over 30 µM with MDAMB453 (MDAMB453 cells). For the same compound, the “PIM2: % inh 2.5 uM” value on recombinant human Pim-2 turned out to be 73.771%.

Regarding `C[C@H](Nc1cc(NC2CC2)n2ncc(/C=C3\CC(=O)NC3=O)c2n1)c1ccccc1` [Example A12], the IC50 was under 1 µM at recombinant human CK2; 11.3 µM in assay [1] (Homo sapiens, BXPC-3); 6.09 µM with MDAMB453 (Homo sapiens, MDA-MB-453, MDAMB453 cells). Also, at recombinant human Pim-2 (read-out: PIM2: % inh 2.5 uM), the inhibition at 2.5 µM turned out to be 6.72%.

For the compound `CC(N)C(=O)OCN1C(=O)C/C(=C\c2cnn3c(NC4CC4)cc(Nc4cc(Cl)ccc4F)nc23)C1=O` (stereo not drawn) [Example P7, (E)-(3-((5-(5-chloro-2-fluorophenylamino)-7-(cyclopropylamino)pyrazolo[1,5-a]pyrimidin-3-yl)methylene)-2,5-dioxopyrrolidin-1-yl)methy 2-aminopropanoate], the IC50 was under 1 µM on recombinant human CK2, 12.4 µM in assay [1] and 10.5 µM with MDAMB453 (MDAMB453 cells). Moreover, the “PIM2: % inh 2.5 uM” value at recombinant human Pim-2 is 49.047%.
